Values of other authors as cited in patent EP0984012A2, “Nitric oxide releasing oxindole prodrugs with analgesic and anti-inflammatory properties” (Pfizer Products Inc., priority 1998, dated 2000).

What was measured:
[1] = tested on: experimental gastric ulcers; details: rat, daily treatment
[2] = animal models of acute and chronic inflammation; versus parent NSAID
[3] = administered on both an acute and a chronic basis; versus parent NSAID

| SMILES | healing of experimental gastric ulcers [1] | anti-inflammatory activity [2] | gastric injury [3] | mitochondrial damage (small intestine; in vivo) | macroscopic damage in the small intestine (small intestine; rats, versus flurbiprofen) |
| --- | --- | --- | --- | --- | --- |
| O=C(O)Cc1ccccc1Nc1c(Cl)cccc1Cl [diclofenac] | no effect |  |  |  |  |
| CC(C(=O)OCCCCO[N+](=O)[O-])c1ccc(-c2ccccc2)c(F)c1 (stereo not drawn) [flurbiprofen nitroxybutylester] |  | comparable to that of their parent NSAIDs | markedly less gastric injury than that produced by their parent NSAIDs | associated with mitochondrial damage in vivo | significantly less macroscopic damage in the small intestine than flurbiprofen |
| O=[N+]([O-])OCC(CO[N+](=O)[O-])O[N+](=O)[O-] [glyceryl trinitrate] | accelerated |  |  |  |  |
| CC(C(=O)OCCCCO[N+](=O)[O-])c1cccc(C(=O)c2ccccc2)c1 (stereo not drawn) [ketoprofen nitroxybutylester] |  | comparable to that of their parent NSAIDs | markedly less gastric injury than that produced by their parent NSAIDs |  |  |
| COc1ccc2cc(CCC(C)=O)ccc2c1 [nabumetone] | no effect |  |  |  |  |
| O=C(Cc1ccccc1Nc1c(Cl)cccc1Cl)OCCCCO[N+](=O)[O-] [nitrofenac, diclofenac-4-nitroxybutylester] | accelerated | comparable to that of their parent NSAIDs | markedly less gastric injury than that produced by their parent NSAIDs |  |  |
